# Measurements as given in patent US11272841B2, “Indicator fluids, systems, and methods for assessing movement of substances within, to or from a cerebrospinal fluid, brain or spinal cord compartment of a cranio-spinal cavity of a human” (BRAINWIDESOLUTIONS AS, priority 2017, dated 2022).
# Marks after values point to notes of the source that are not given here.
# Experiment: Repeated standardized T1-weighted MRI: signal units (SU) in ROIs of CSF, venous space and brain tissue after intrathecal gadobutrol, iNPH versus reference patients (Tables 2-4, FIG. 14b, 16)
# Format: in vivo, human
# Description: The different features of Aspect 2 are based on novel in-vivo observations in humans. […] In the following paragraphs, these novel observations in humans are commented on in more detail. In these studies, the MRI contrast agent gadobutrol served as indicator fluid and MRI SUs were indication signals. MRI T1 weighted signal units were measured when gadobutrol was present within CSF after having been administered to the CSF compartment, and were compared with MR images having identical sequence parameter settings and with no gadobutrol present in CSF. […] With a MW of 605 Da, gadobutrol is a rather large molecule in comparison to the MW of water (H2O) molecule, which is 18 Da. Clearance of gadobutrol is then indicative of clearance of other substances with similar properties.
# We explored both movement of the contrast agent within, to, and from the cranio-spinal cavity, including CSF, brain and spinal cord compartment, and from the cranio-spinal cavity to extra-cranial LNs. With gadobutrol present within CSF, blood level concentrations of contrast agents were determined at various time point. The repeated MRI acquisitions made it possible to create clearance curves for one or more pixels, defined by ROIs. ROIs were placed within CSF compartments, brain and spinal cord tissue compartments, and extracranial LN tissue compartments. By means of MRI, we could create graphic curves illustrating clearance of substances (clearance illustrating curves) for defined ROIs built up of a defied number of pixels for each individual. For details of said clearance curves, see FIG. 7. The establishment of clearance curves was dependent on repeated MRI acquisitions over a long period.
# Using MRI SUs, we created clearance illustrating curves, see FIG. 7, for the individual patients as well as for groups of individuals. Tables 2-4 illustrate various examples of parameter values of the clearance illustrating curves.
# Table 2, as discussed with FIG. 2, illustrates how maximum increase in SUs varies between individuals and patient groups. Tables 3 and 4 compare such clearance curve parameters from two patient groups, namely iNPH and reference (i.e. control) patients, illustrating inter-individual differences and differences between patient groups. These patient groups represent no limitation of the invention as it may be used in various patient groups such as Alzheimer's and dementia in general, brain tumor (e.g. astrocytoma), multiple sclerosis and inflammatory brain disease, stroke (brain infarction or bleeds), sleep disturbances, neurodegenerative disease, CSF circulation disorders, traumatic brain injury, neurometabolic diseases, glaucoma, chronic headache and migraine, and in assessment of ageing in general.
# Even though perfect match of ROIs of repeated images may be difficult to obtain, the second aspect of the invention is facilitated by that image acquisition parameters at repeated MRI acquisitions are kept fixed and thus standardized. […] Further, to make best possible alignments of pixels, methods for alignment of repeated MRI acquisitions need to be implemented. Methods for alignment of repeated MRI images belong to prior art. Aids to improve alignment may incorporate landmark locations such as the cranial vault, pineal gland, and ventricular system.
# Each image acquisition lasted 6 minutes and 29 seconds.
# [1] = Brain parenchyma: Frontal horn, Reference
# [2] = Brain parenchyma: Frontal horn, iNPH
# [3] = Brain parenchyma: Inferior frontal gyrus (IFG), Reference
# [4] = Brain parenchyma: Inferior frontal gyrus (IFG), iNPH
# [5] = Brain parenchyma: Pons, Reference
# [6] = Brain parenchyma: Precentral gyrus, Reference
# [7] = Brain parenchyma: Precentral gyrus, iNPH
# [8] = Brain parenchyma: Thalamus, Reference
# [9] = Brain parenchyma: Thalamus, iNPH
# [10] = CSF space: 3rd Ventricle, Reference
# [11] = CSF space: 4th Ventricle, Reference
# [12] = CSF space: Foramen Magnum, Reference
# [13] = CSF space: Foramen Magnum, iNPH
# [14] = CSF space: Lateral Ventricle, Reference
smiles,measurement,setting,value
O=C([O-])CN1CCN(CC(=O)[O-])CCN([C@H](CO)[C@H](O)CO)CCN(CC(=O)[O-])CC1.[Gd+3] (racemic) [gadobutrol],Enhancement coefficient (SU/min),[1],0.05 SU/min
same,Max increase (SU),[1],7.9 ± 7.9 SU
same,Time to peak,[1],1109.8 ± 585.6 min
same,Enhancement coefficient (SU/min),[2],0.04 SU/min
same,Max increase (SU),[2],48.5 ± 32.8^b SU
same,Time to peak,[2],1349.3 ± 350.9 min
same,Enhancement coefficient (SU/min),[3],0.02 SU/min
same,Max increase (SU),[3],23.8 ± 20.9 SU
same,Time to peak,[3],1421.3 ± 53.1 min
same,Enhancement coefficient (SU/min),[4],0.03 SU/min
same,Max increase (SU),[4],39.1 ± 25.3 SU
same,Time to peak,[4],1358.0 min
same,Enhancement coefficient (SU/min),[5],0.08 SU/min
same,Time to peak,[5],929.4 ± 676.9 min
same,Enhancement coefficient (SU/min),"Brain parenchyma: Pons, iNPH",0.03 SU/min
same,Time to peak,"Brain parenchyma: Pons, iNPH",1090.0 ± 602.3 min
same,Enhancement coefficient (SU/min),[6],0.03 SU/min
same,Max increase (SU),[6],7.8 ± 11.2 SU
same,Time to peak,[6],742.8 ± 727.9 min
same,Enhancement coefficient (SU/min),[7],0.04 SU/min
same,Max increase (SU),[7],9.0 ± 8.3 SU
same,Time to peak,[7],900.0 ± 686.4 min
same,Enhancement coefficient (SU/min),[8],0.01 SU/min
same,Max increase (SU),[8],9.0 ± 7.1 SU
same,Time to peak,[8],1288.4 ± 386.3 min
same,Enhancement coefficient (SU/min),[9],0.01 SU/min
same,Max increase (SU),[9],13.0 ± 6.8 SU
same,Time to peak,[9],1261.7 ± 462.6 min
same,Clearance coefficient (SU/min),[10],−0.09 ± 0.08 SU/min
same,Clearance time,[10],1135.3 ± 74.2 min
same,Enhancement coefficient (SU/min),[10],0.4 SU/min
same,Max increase (SU),[10],115.1 ± 103.8 SU
same,Max reduction (SU),[10],−103.7 ± 83.9 SU
same,Time to peak,[10],253.8 ± 133.2 min
same,Clearance coefficient (SU/min),"CSF space: 3rd Ventricle, iNPH",−0.10 ± 0.07 SU/min
same,Clearance time,"CSF space: 3rd Ventricle, iNPH",1234.3 ± 116.2 min
same,Enhancement coefficient (SU/min),"CSF space: 3rd Ventricle, iNPH",1.4 SU/min
same,Max increase (SU),"CSF space: 3rd Ventricle, iNPH",243.6 ± 136.9^a SU
same,Max reduction (SU),"CSF space: 3rd Ventricle, iNPH",−114.4 ± 76.8 SU
same,Time to peak,"CSF space: 3rd Ventricle, iNPH",615.3 ± 587.5 min
same,Clearance coefficient (SU/min),[11],−0.18 ± 0.08 SU/min
same,Clearance time,[11],1287.6 ± 105.9 min
same,Enhancement coefficient (SU/min),[11],6.3 SU/min
same,Max increase (SU),[11],236.0 ± 142.9 SU
same,Max reduction (SU),[11],−232.6 ± 103.7 SU
same,Time to peak,[11],123.4 ± 98.1 min
same,Clearance coefficient (SU/min),"CSF space: 4th Ventricle, iNPH",−0.19 ± 0.1 SU/min
same,Clearance time,"CSF space: 4th Ventricle, iNPH",1234.4 ± 109.1 min
same,Enhancement coefficient (SU/min),"CSF space: 4th Ventricle, iNPH",5.6 SU/min
same,Max increase (SU),"CSF space: 4th Ventricle, iNPH",386.5 ± 138.2^a SU
same,Max reduction (SU),"CSF space: 4th Ventricle, iNPH",−231.6 ± 128.1 SU
same,Time to peak,"CSF space: 4th Ventricle, iNPH",286.7 ± 322.9 min
same,Clearance coefficient (SU/min),[12],−0.28 ± 0.08 SU/min
same,Clearance time,[12],1294.4 ± 154.5 min
same,Enhancement coefficient (SU/min),[12],17.7 SU/min
same,Max increase (SU),[12],426.0 ± 123.0 SU
same,Max reduction (SU),[12],−358.1 ± 117.7 SU
same,Time to peak,[12],129.4 ± 156.7 min
same,Clearance coefficient (SU/min),[13],−0.16 ± 0.07^b SU/min
same,Clearance time,[13],1264.3 ± 116.1 min
same,Enhancement coefficient (SU/min),[13],5.9 SU/min
same,Max increase (SU),[13],398.3 ± 108.0 SU
same,Max reduction (SU),[13],−206.7 ± 90.8^b SU
same,Time to peak,[13],174.5 ± 94.2 min
same,Clearance coefficient (SU/min),[14],−0.07 ± 0.01 SU/min
same,Clearance time,[14],1098.0 ± 12.5 min
same,Enhancement coefficient (SU/min),[14],0.13 SU/min
same,Max increase (SU),[14],42.5 ± 51.9 SU
same,Max reduction (SU),[14],−72.3 ± 11.9 SU
same,Time to peak,[14],402.6 ± 446.1 min
